Results: patent publication US5059607A, “Imidazolyl benzisoquinolines useful as 5-HT3 receptor antagonists” (Ono-Pharmaceutical Co., Ltd., priority 1989, dated 1991)
Counter-ions that a name gives are not always drawn. Like-named read-outs stand apart in the source and are kept apart here.

Key:
5-HT3 receptor = biological target: T1, 5-HT3 receptor (Rattus norvegicus, UniProt P35563); test: Antagonistic activity against 5-HT3 receptor in vivo in rats (suppression of 5-HT-induced reflex bradycardia); details: urethane-anesthetized male Wister rat
T1 construct: 5-HT3 receptor in vivo in rats; from tissue; host or cells: whole anesthetized male Wistar rat (in vivo; endogenous receptor, no preparation isolated)
T1 sequence (P35563 24-483): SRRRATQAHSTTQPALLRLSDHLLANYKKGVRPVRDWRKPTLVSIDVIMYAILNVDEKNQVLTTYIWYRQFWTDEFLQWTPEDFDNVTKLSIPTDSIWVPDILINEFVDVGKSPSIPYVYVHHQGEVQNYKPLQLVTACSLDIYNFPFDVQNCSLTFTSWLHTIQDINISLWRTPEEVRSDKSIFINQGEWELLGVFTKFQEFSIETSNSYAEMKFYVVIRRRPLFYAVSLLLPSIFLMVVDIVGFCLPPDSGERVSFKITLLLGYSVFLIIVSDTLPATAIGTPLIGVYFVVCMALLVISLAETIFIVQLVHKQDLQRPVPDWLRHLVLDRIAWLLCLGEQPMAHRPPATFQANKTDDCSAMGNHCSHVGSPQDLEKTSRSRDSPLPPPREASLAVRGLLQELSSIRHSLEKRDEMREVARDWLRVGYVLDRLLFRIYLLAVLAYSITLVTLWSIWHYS
Experimental: Male Wister rat was urethane-anesthetized and fixed. Cannulas were inserted in the carotid artery and in the thigh vein as used for the recording of blood pressure and heart beat, and for the administration of the test compounds, respectively.
Several amounts of a compound of the present invention were administered from the vein or to the duodenum. 5-HT was administered rapidly to the vein, 2 mins. after administration of the compound of the present invention.

[1] = Acute toxicity (LD50) in mice; details: mouse, in vivo
[2] = iv, 5-HT i.v. 2 mins after compound, read-out: IC50 i.v. (antagonistic activity against 5-HT3 receptor in vivo in rats)

Cc1[nH]cnc1Cn1ccc2cc(Br)c3ccccc3c2c1=O.Cl [1(g), 2-(5-methylimidazol-4-ylmethyl)-6-bromo-1,2-dihydrobenz[1,2-h]isoquinolin-1-one hydrochloride]
ED50 (5-HT3 receptor; [2]): 5.87 µg/kg

COc1cc2ccccc2c2c(=O)n(Cc3nc[nH]c3C)ccc12.Cl [1(a), 2-(5-methylimidazol-4-ylmethyl)-5-methoxy-1,2-dihydrobenz[1,2-h]isoquinolin-1-one hydrochloride]
ED50 (5-HT3 receptor; [2]): 2.4 µg/kg

Cc1[nH]cnc1Cn1ccc2c(O)cc3ccccc3c2c1=O.Cl [Example 1(f), 2-(5-methylimidazol-4-ylmethyl)-5-hydroxy-1,2-dihydrobenz[1,2-h]isoquinolin-1-one hydrochloride]
ED50 (5-HT3 receptor; [2]): 0.62 µg/kg

Cc1[nH]cnc1Cn1ccc2cc(C)c3ccccc3c2c1=O.Cl [1(d), 2-(5-methylimidazol-4-ylmethyl)-6-methyl-1,2-dihydrobenz[1,2-h]isoquinolin-1-one hydrochloride]
ED50 (5-HT3 receptor; [2]): 0.89 µg/kg

Cc1[nH]cnc1Cn1ccc2ccc3ccccc3c2c1=O.Cl [Example 1, 2-(5-methylimidazol-4-yl-methyl)-1,2-dihydrobenz[1,2-h]isoquinolin-1-one hydrochloride]
LD50 ([1]; intravenous administration, read-out: acute toxicity (LD50), intravenous): 94000 µg/kg | LD50 ([1]; oral administration, read-out: acute toxicity (LD50), oral): > 800000 µg/kg | ED50 (5-HT3 receptor; i.d. (to the duodenum), read-out: ID50 i.d. (antagonistic activity against 5-HT3 receptor in vivo in rats)): 7.5 µg/kg | ED50 (5-HT3 receptor; [2]): 0.29 µg/kg

Cc1[nH]cnc1Cn1ccc2c(C)cc3ccccc3c2c1=O [1(e), 2-(5-methylimidazol-4-ylmethyl)-5-methyl-1,2-dihydrobenz[1,2-h]isoqionolin-1-one hydrochloride]
ED50 (5-HT3 receptor; [2]): 1.19 µg/kg
